In PubChem BioAssay AID1963978 (Molecular Pharmacology Branch, DTP, NCI, 2024):

System: 616215-338-R-J1-PDC spheroids with HUVEC/MSC, viability
Experiment: Anticancer human tumor 616215-338-R-J1-PDC patient-derived colon adenocarcinoma cell line growth inhibition [PI3K]
Conditions: for IC50: curve of first compound; for viability, T/C: stronger effect = lower value
Procedure, shortened: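 We assembled tumor spheroids that included a stromal compartment of HUVEC and MSCs, then exposed them to targeted agents alone and together with PI3K pathway inhibitors. Concentration series descended by half-log from clinically achievable Cmax levels. Viability served as the endpoint.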

[1] = second compound 0.0316 µM, first compound 0.0316 µM
[2] = second compound 0.0316 µM, first compound 0.1 µM
[3] = second compound 0.0316 µM, first compound 0.316 µM
[4] = second compound 0.0316 µM, first compound 1 µM
[5] = second compound 0.0316 µM, first compound 3.16 µM
[6] = second compound 0.0316 µM, first compound 10 µM
[7] = second compound 0.1 µM, first compound 0.0316 µM
[8] = second compound 0.1 µM, first compound 0.1 µM
[9] = second compound 0.1 µM, first compound 0.316 µM
[10] = second compound 0.1 µM, first compound 1 µM
[11] = second compound 0.1 µM, first compound 3.16 µM
[12] = second compound 0.1 µM, first compound 10 µM
[13] = second compound 0.316 µM, first compound 0.0316 µM
[14] = second compound 0.316 µM, first compound 0.1 µM
[15] = second compound 0.316 µM, first compound 0.316 µM
[16] = second compound 0.316 µM, first compound 1 µM
[17] = second compound 0.316 µM, first compound 3.16 µM
[18] = second compound 0.316 µM, first compound 10 µM
[19] = second compound 1 µM, first compound 0.0316 µM
[20] = second compound 1 µM, first compound 0.1 µM
[21] = second compound 1 µM, first compound 0.316 µM
[22] = second compound 1 µM, first compound 1 µM
[23] = second compound 1 µM, first compound 3.16 µM
[24] = second compound 1 µM, first compound 10 µM
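Note: spheroids exposed to agents for seven days before the viability read.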

Work on `CC(C)NCC(C(=O)N1CCN(c2ncnc3c2C(C)CC3O)CC1)c1ccc(Cl)cc1` (stereo unspecified) + COc1c(OCCCN2CCOCC2)ccc2c3n(c(=NC(=O)c4cnc(N)nc4)nc12)CCN3 yielded an IC50 (second compound 0.00316 µM) of 4670 nM, an IC50 (second compound 0.01 µM) of 4000 nM and an IC50 (second compound 0.0316 µM) of 2560 nM. For the same compound, the IC50 (second compound 0.1 µM) was 1640 nM, the IC50 (second compound 0.316 µM) was < 31.6 nM and the IC50 (second compound 1 µM) was < 31.6 nM. It also gave a viability, T/C (second compound 0.00316 µM, first compound 0.0316 µM) of 87.4%, a viability, T/C (second compound 0.00316 µM, first compound 0.1 µM) of 92.8% and a viability, T/C (second compound 0.00316 µM, first compound 0.316 µM) of 92.9%. The viability, T/C (second compound 0.00316 µM, first compound 1 µM) was 97%, the viability, T/C (second compound 0.00316 µM, first compound 3.16 µM) was 64.3% and the viability, T/C (second compound 0.00316 µM, first compound 10 µM) was 22.1%. For the same compound, the viability, T/C (second compound 0.01 µM, first compound 0.0316 µM) was 93.1%, the viability, T/C (second compound 0.01 µM, first compound 0.1 µM) was 99.6% and the viability, T/C (second compound 0.01 µM, first compound 0.316 µM) was 100%. For the same compound, the viability, T/C (second compound 0.01 µM, first compound 1 µM) was 103%, the viability, T/C (second compound 0.01 µM, first compound 3.16 µM) was 57.2% and the viability, T/C (second compound 0.01 µM, first compound 10 µM) was 21.4%. The viability, T/C [1] was 96.8%, the viability, T/C [2] was 102% and the viability, T/C [3] was 93.6%. It also gave a viability, T/C [4] of 94.4%, a viability, T/C [5] of 40.1% and a viability, T/C [6] of 23.7%. For the same compound, the viability, T/C [7] was 98.8%, the viability, T/C [8] was 84.4% and the viability, T/C [9] was 80.3%. For the same compound, the viability, T/C [10] was 55.7%, the viability, T/C [11] was 39.6% and the viability, T/C [12] was 18.5%. It also gave a viability, T/C [13] of 38.3%, a viability, T/C [14] of 37.1% and a viability, T/C [15] of 33.3%. The viability, T/C [16] was 30.3%, the viability, T/C [17] was 28.2% and the viability, T/C [18] was 17%. The viability, T/C [19] was 24.8%, the viability, T/C [20] was 21.8% and the viability, T/C [21] was 22.1%. For the same compound, the viability, T/C [22] was 20.9%, the viability, T/C [23] was 20.7% and the viability, T/C [24] was 14.1%.

`C=CC(=O)N1CCN(c2nc(=O)n(-c3c(C)ccnc3C(C)C)c3nc(-c4c(O)cccc4F)c(F)cc23)C(C)C1` (stereo unspecified) + CC(Nc1ncnc2nc[nH]c12)c1cc2cccc(Cl)c2c(=O)n1-c1ccccc1 was tested, and the IC50 (second compound 0.0316 µM) was > 10000 nM, the IC50 (second compound 0.1 µM) was > 10000 nM and the IC50 (second compound 0.316 µM) was > 10000 nM. For the same compound, the IC50 (second compound 1 µM) was > 10000 nM, the IC50 (second compound 3.16 µM) was > 10000 nM and the IC50 (second compound 10 µM) was > 10000 nM. The viability, T/C [1] was 89%, the viability, T/C [2] was 92.5% and the viability, T/C [3] was 109%. It also gave a viability, T/C [4] of 104%, a viability, T/C [5] of 93.3% and a viability, T/C [6] of 95.8%. For the same compound, the viability, T/C [7] was 100%, the viability, T/C [8] was 99.3% and the viability, T/C [9] was 98%. It also gave a viability, T/C [10] of 93.4%, a viability, T/C [11] of 96.8% and a viability, T/C [12] of 89.1%. For the same compound, the viability, T/C [13] was 99.7%, the viability, T/C [14] was 107% and the viability, T/C [15] was 92.8%. For the same compound, the viability, T/C [16] was 96.5%, the viability, T/C [17] was 91.4% and the viability, T/C [18] was 74.7%. The viability, T/C [19] was 101%, the viability, T/C [20] was 99.5% and the viability, T/C [21] was 106%. It also gave a viability, T/C [22] of 96.9%, a viability, T/C [23] of 94% and a viability, T/C [24] of 88.5%. For the same compound, the viability, T/C (second compound 3.16 µM, first compound 0.0316 µM) was 101%, the viability, T/C (second compound 3.16 µM, first compound 0.1 µM) was 104% and the viability, T/C (second compound 3.16 µM, first compound 0.316 µM) was 98%. It also gave a viability, T/C (second compound 3.16 µM, first compound 1 µM) of 105%, a viability, T/C (second compound 3.16 µM, first compound 3.16 µM) of 85.4% and a viability, T/C (second compound 3.16 µM, first compound 10 µM) of 78.8%. The viability, T/C (second compound 10 µM, first compound 0.0316 µM) was 106%, the viability, T/C (second compound 10 µM, first compound 0.1 µM) was 107% and the viability, T/C (second compound 10 µM, first compound 0.316 µM) was 108%. For the same compound, the viability, T/C (second compound 10 µM, first compound 1 µM) was 95.5%, the viability, T/C (second compound 10 µM, first compound 3.16 µM) was 99% and the viability, T/C (second compound 10 µM, first compound 10 µM) was 82.6%.

`Cn1cnc2c(F)c(Nc3ccc(Br)cc3Cl)c(C(=O)NOCCO)cc21` + CC(Nc1ncnc2nc[nH]c12)c1cc2cccc(Cl)c2c(=O)n1-c1ccccc1 gave an IC50 (second compound 0.0316 µM) of 1520 nM, an IC50 (second compound 0.1 µM) of 1560 nM and an IC50 (second compound 0.316 µM) of 1910 nM. It also gave an IC50 (second compound 1 µM) of 1730 nM, an IC50 (second compound 3.16 µM) of 1270 nM and an IC50 (second compound 10 µM) of 507 nM. It also gave a viability, T/C (second compound 0.0316 µM, first compound 0.00949 µM) of 94.3%, a viability, T/C (second compound 0.0316 µM, first compound 0.03 µM) of 100% and a viability, T/C (second compound 0.0316 µM, first compound 0.0949 µM) of 89.7%. The viability, T/C (second compound 0.0316 µM, first compound 0.3 µM) was 75.8%, the viability, T/C (second compound 0.0316 µM, first compound 0.949 µM) was 59.9% and the viability, T/C (second compound 0.0316 µM, first compound 3 µM) was 37.5%. It also gave a viability, T/C (second compound 0.1 µM, first compound 0.00949 µM) of 108%, a viability, T/C (second compound 0.1 µM, first compound 0.03 µM) of 96.5% and a viability, T/C (second compound 0.1 µM, first compound 0.0949 µM) of 89%. It also gave a viability, T/C (second compound 0.1 µM, first compound 0.3 µM) of 77.6%, a viability, T/C (second compound 0.1 µM, first compound 0.949 µM) of 51.8% and a viability, T/C (second compound 0.1 µM, first compound 3 µM) of 43.8%. It also gave a viability, T/C (second compound 0.316 µM, first compound 0.00949 µM) of 95.2%, a viability, T/C (second compound 0.316 µM, first compound 0.03 µM) of 90.5% and a viability, T/C (second compound 0.316 µM, first compound 0.0949 µM) of 86.5%. For the same compound, the viability, T/C (second compound 0.316 µM, first compound 0.3 µM) was 70.2%, the viability, T/C (second compound 0.316 µM, first compound 0.949 µM) was 59.6% and the viability, T/C (second compound 0.316 µM, first compound 3 µM) was 44.4%. The viability, T/C (second compound 1 µM, first compound 0.00949 µM) was 98.6%, the viability, T/C (second compound 1 µM, first compound 0.03 µM) was 90.8% and the viability, T/C (second compound 1 µM, first compound 0.0949 µM) was 87.6%. The viability, T/C (second compound 1 µM, first compound 0.3 µM) was 84.6%, the viability, T/C (second compound 1 µM, first compound 0.949 µM) was 63% and the viability, T/C (second compound 1 µM, first compound 3 µM) was 36.9%. It also gave a viability, T/C (second compound 3.16 µM, first compound 0.00949 µM) of 102%, a viability, T/C (second compound 3.16 µM, first compound 0.03 µM) of 96.3% and a viability, T/C (second compound 3.16 µM, first compound 0.0949 µM) of 83.3%. The viability, T/C (second compound 3.16 µM, first compound 0.3 µM) was 76.5%, the viability, T/C (second compound 3.16 µM, first compound 0.949 µM) was 55% and the viability, T/C (second compound 3.16 µM, first compound 3 µM) was 32.5%. The viability, T/C (second compound 10 µM, first compound 0.00949 µM) was 117%, the viability, T/C (second compound 10 µM, first compound 0.03 µM) was 99.1% and the viability, T/C (second compound 10 µM, first compound 0.0949 µM) was 93.3%. For the same compound, the viability, T/C (second compound 10 µM, first compound 0.3 µM) was 52.5%, the viability, T/C (second compound 10 µM, first compound 0.949 µM) was 41% and the viability, T/C (second compound 10 µM, first compound 3 µM) was 6.44%.
